Experimental data from patent US4820694A, “Modifications of 3-O-demethylmycinose in macrocin and lactenocin” (priority 1986, dated 1989).
≈ marks a conversion by molar mass, not a printed value. Where two headings read alike, the source gives them in different places.

Tests used:
[1] = test system: Escherichia coli EC14; assay: standard agar-dilution MIC assay; type: cell-based
Description: (§1) The MIC's in Table III were determined by standard agar-dilution assays. The MIC's in Table IV were obtained using conventional brothdilution microtiter tests.

[2] = test system: Haemophilus influenzae 76; assay: standard agar-dilution MIC assay; type: cell-based; settings: Haemophilus influenzae, 76
Description: as §1

[3] = test system: Haemophilus influenzae C.L.; assay: standard agar-dilution MIC assay; type: cell-based; settings: Haemophilus influenzae
Description: as §1

[4] = test system: Klebsiella pneumoniae X68; assay: standard agar-dilution MIC assay; type: cell-based; settings: Klebsiella pneumoniae, X68
Description: as §1

[5] = test system: Pseudomonas aeruginosa X239; assay: standard agar-dilution MIC assay; type: cell-based; settings: Pseudomonas aeruginosa, X239
Description: as §1

[6] = test system: Staphylococcus aureus V41; assay: standard agar-dilution MIC assay; type: cell-based; settings: Staphylococcus aureus, V41
Description: as §1

[7] = test system: Staphylococcus aureus X1.1; assay: standard agar-dilution MIC assay; type: cell-based; settings: Staphylococcus aureus, X1.1
Description: as §1

[8] = test system: Staphylococcus aureus X400; assay: standard agar-dilution MIC assay; type: cell-based; settings: Staphylococcus aureus, X400
Description: as §1

[9] = test system: Staphylococcus epidermidis EP12; assay: standard agar-dilution MIC assay; type: cell-based
Description: as §1

[10] = test system: Staphylococcus epidermidis EPI1; assay: standard agar-dilution MIC assay; type: cell-based; settings: Staphylococcus epidermidis, EPI1
Description: as §1

[11] = test system: Streptococcus Group D 9960; assay: standard agar-dilution MIC assay; type: cell-based; settings: GROUPD9960, read-out: MIC
Description: as §1

[12] = test system: Streptococcus Group D X66; assay: standard agar-dilution MIC assay; type: cell-based; settings: read-out: MIC
Description: as §1

[13] = test system: Streptococcus pyogenes C203; assay: standard agar-dilution MIC assay; type: cell-based; settings: Streptococcus pyogenes, C203
Description: as §1

[14] = test system: Staphylococcus aureus S13E; assay: microbe, parasite or virus in culture; type: cell-based; settings: Staphylococcus aureus, S13E
Description: as §1

[15] = test system: Streptococcus pneumoniae Park I; assay: microbe, parasite or virus in culture; type: cell-based; settings: Streptococcus pneumoniae
Description: as §1

[16] = test system: Bordetella bronchiseptica; assay: broth-dilution microtiter MIC test; type: cell-based; settings: Bordetella bronchiseptica
Description: as §1

[17] = test system: Mycoplasma gallisepticum 15E; assay: broth-dilution microtiter MIC test; type: cell-based; settings: Mycoplasmoides gallisepticum, 15E
Description: as §1

[18] = test system: Mycoplasma gallisepticum 29C; assay: broth-dilution microtiter MIC test; type: cell-based; settings: Mycoplasmoides gallisepticum, 29C
Description: as §1

[19] = test system: Mycoplasma gallisepticum 36H; assay: broth-dilution microtiter MIC test; type: cell-based; settings: Mycoplasmoides gallisepticum, 36H
Description: as §1

[20] = test system: Mycoplasma hyorhinis 29E; assay: broth-dilution microtiter MIC test; type: cell-based; settings: Mycoplasma, 29E
Description: as §1

[21] = test system: Pasteurella hemolytica 22C; assay: broth-dilution microtiter MIC test; type: cell-based; settings: Pasteurella, 22C
Description: as §1

[22] = test system: Pasteurella hemolytica 23C; assay: broth-dilution microtiter MIC test; type: cell-based; settings: Pasteurella, 23C
Description: as §1

[23] = test system: Pasteurella hemolytica 41D; assay: broth-dilution microtiter MIC test; type: cell-based; settings: Pasteurella, 41D
Description: as §1

[24] = test system: Pasteurella multocida 17E; assay: broth-dilution microtiter MIC test; type: cell-based; settings: Pasteurella multocida, 17E
Description: as §1

[25] = test system: Pasteurella multocida 22A; assay: broth-dilution microtiter MIC test; type: cell-based; settings: Pasteurella multocida, 22A
Description: as §1

[26] = test system: Pasteurella multocida 40G; assay: broth-dilution microtiter MIC test; type: cell-based; settings: Pasteurella multocida, 40G
Description: as §1

[27] = test system: Pasteurella multocida 60A; assay: broth-dilution microtiter MIC test; type: cell-based; settings: Pasteurella multocida, 60A
Description: as §1

[28] = test system: Pasteurella multocida 68C; assay: broth-dilution microtiter MIC test; type: cell-based; settings: Pasteurella multocida, 68C
Description: as §1

[29] = test system: Staphylococcus aureus 19C; assay: broth-dilution microtiter MIC test; type: cell-based; settings: Staphylococcus aureus, 19C
Description: as §1

[30] = test system: Streptococcus sp. 19F; assay: broth-dilution microtiter MIC test; type: cell-based; settings: Streptococcus, SP.19F
Description: as §1

[31] = test system: Pasteurella multocida; assay: Pasteurella multocida infection in one-day-old chicks; type: in vivo; settings: subcutaneously, 30 mg/kg × 2, 1 and 4 hours post-challenge
Description: Some of the formula 1 compounds have also shown in vivo antibacterial activity against infections induced by Gram-negative bacteria. Table VI summarizes the results of tests in which illustrative compounds were evaluated against a Pasteurella infection in one-day-old chicks. The compounds were administered by subcutaneous injection at a dosage of 30 mg/kg, 1 and 4 hours post-challenge of the chicks with Pasteurella multocida (0.1 ml of a 10^-4 dilution of a twenty-hour tryptose broth culture of an avian P. multocida given subcutaneously). In these tests, unless indicated otherwise, all non-medicated infected chicks died within 24 hours of Pasteurella challenge.
^a Administered subcutaneously; 30 mg/kg × 2

[32] = test system: Mycoplasma synoviae 40A; assay: broth-dilution microtiter MIC test; type: cell-based; settings: Mycoplasmopsis synoviae, 40A; broth-dilution microtiter; read-out: MIC
Description: as §1

[33] = test system: Streptococcus pyogenes C203; assay: protection of mice experimentally infected with S. pyogenes C203; type: in vivo; settings: C203, sc, Subcutaneous, mice, mg/kg × 2, doses given 1 and 4 hours postinfection, read-out: ED50
How it was run: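 Mice experimentally infected with S. pyogenes C203 got two doses of test compound, at 1 and 4 h postinfection. The ED50 is the dose in mg/kg (per dose, given twice) that protected 50% of the animals.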

[34] = broth-dilution microtiter, read-out: MIC

For `CCC1OC(=O)CC(O)C(C)C(OC2OC(C)C(OC3CC(C)(O)C(O)C(C)O3)C(N(C)C)C2OC(C)=O)C(CC=O)CC(C)C(=O)C=CC(C)=CC1COC1OC(C)C(OC(=O)Cc2ccccc2)C(O)C1OC` (stereo not drawn) [Compound 9, 2'-O-Acetyl-4'"-O-phenylacetyl-macrocin], the MIC [1] was greater than 128 µg/mL, the MIC [2] was 32 µg/mL (≈ 30.1 µM) and the MIC [3] was 32 µg/mL (≈ 30.1 µM). The MIC [4] was greater than 128 µg/mL, the MIC [5] was greater than 128 µg/mL and the MIC [6] was 1 µg/mL (≈ 0.941 µM). It also gave an MIC [7] of 1 µg/mL (≈ 0.941 µM), an MIC [8] of 2 µg/mL (≈ 1.88 µM) and an MIC [9] of 2 µg/mL (≈ 1.88 µM). It also gave an MIC [10] of 2 µg/mL (≈ 1.88 µM), an MIC [11] of 0.5 µg/mL (≈ 0.471 µM) and an MIC [12] of 1 µg/mL (≈ 0.941 µM). For the same compound, the MIC [13] was 0.5 µg/mL (≈ 0.471 µM), the MIC [14] was 2 µg/mL (≈ 1.88 µM) and the MIC [15] was 0.25 µg/mL (≈ 0.235 µM). The MIC [16] was greater than 50 µg/mL, the MIC [17] was 12.5 µg/mL (≈ 11.8 µM) and the MIC [18] was 0.78 µg/mL (≈ 0.734 µM). It also gave an MIC [19] of 12.5 µg/mL (≈ 11.8 µM), an MIC [20] of 1.56 µg/mL (≈ 1.47 µM) and an MIC [21] greater than 50 µg/mL. For the same compound, the MIC [22] was greater than 50 µg/mL, the MIC [23] was greater than 50 µg/mL and the MIC [24] was greater than 50 µg/mL. For the same compound, the MIC [25] was greater than 50 µg/mL, the MIC [26] was greater than 50 µg/mL and the MIC [27] was greater than 50 µg/mL. The MIC [28] was greater than 50 µg/mL, the MIC [29] was 3.12 µg/mL (≈ 2.94 µM) and the MIC [30] was 1.56 µg/mL (≈ 1.47 µM). For the same compound, the “Number of Deaths/Number Treated” value [31] was 10/10.
`CCC1OC(=O)CC(O)C(C)C(OC2OC(C)C(O)C(N(C)C)C2OC(C)=O)C(CC=O)CC(C)C(=O)C=CC(C)=CC1COC1OC(C)C(OC(=O)COc2ccccc2)C(O)C1OC` (stereo not drawn) [Compound 33, 2'-O-Acetyl-4"-O-phenoxyacetyl-lactenocin] showed an MIC ([1]; agar-dilution, read-out: MIC) greater than 128 µg/mL, an MIC ([2]; agar-dilution, Ampicillin-resistant strain, read-out: MIC) of 8 µg/mL (≈ 8.56 µM) and an MIC ([3]; agar-dilution, Ampicillin-sensitive strain, read-out: MIC) of 8 µg/mL (≈ 8.56 µM). The MIC ([4]; agar-dilution, read-out: MIC) was greater than 128 µg/mL, the MIC ([5]; agar-dilution, read-out: MIC) was greater than 128 µg/mL and the MIC [6] was 1 µg/mL (≈ 1.07 µM). It also gave an MIC [7] of 1 µg/mL (≈ 1.07 µM), an MIC ([8]; agar-dilution, Methicillin-resistant strain, read-out: MIC) of 2 µg/mL (≈ 2.14 µM) and an MIC [10] of 1 µg/mL (≈ 1.07 µM). The MIC [11] was 1 µg/mL (≈ 1.07 µM), the MIC [12] was 1 µg/mL (≈ 1.07 µM) and the MIC [13] was 0.5 µg/mL (≈ 0.535 µM). For the same compound, the MIC [14] was 1 µg/mL (≈ 1.07 µM), the MIC ([15]; agar-dilution, read-out: MIC) was 0.25 µg/mL (≈ 0.268 µM) and the MIC [16] was 50 µg/mL (≈ 53.5 µM). The MIC [17, 34] was 12.5 µg/mL (≈ 13.4 µM), the MIC [18, 34] was 0.39 µg/mL (≈ 0.418 µM) and the MIC [19, 34] was 12.5 µg/mL (≈ 13.4 µM). The MIC [20] was 3.12 µg/mL (≈ 3.34 µM), the MIC [32] was 0.39 µg/mL (≈ 0.418 µM) and the MIC [21, 34] was 12.5 µg/mL (≈ 13.4 µM). It also gave an MIC [22, 34] of 12.5 µg/mL (≈ 13.4 µM), an MIC [23, 34] of 12.5 µg/mL (≈ 13.4 µM) and an MIC ([24]; broth-dilution microtiter, Bovine isolate, read-out: MIC) of 12.5 µg/mL (≈ 13.4 µM). For the same compound, the MIC [25, 34] was 12.5 µg/mL (≈ 13.4 µM), the MIC [26, 34] was 12.5 µg/mL (≈ 13.4 µM) and the MIC ([27]; broth-dilution microtiter, Avian isolate, read-out: MIC) was 6.25 µg/mL (≈ 6.69 µM). It also gave an MIC [28, 34] of 6.25 µg/mL (≈ 6.69 µM), an MIC [29] of 0.78 µg/mL (≈ 0.835 µM) and an MIC [30, 34] of 0.39 µg/mL (≈ 0.418 µM). For the same compound, the ED50 [33] was 1.9 mg/kg and the “Number of Deaths/Number Treated” value [31] was 8/10.
